Reference: patent EP0996337B1, “A PROCESS OF DELIVERING A POLY[…] THE VASCULAR SYSTEM” (Mirus Bio Corporation, priority 1997, dated 1998)

Test: Serum ALT and GGT after injections in mice
Assay type: in vivo
Details: positive control, one day after intraperitoneal injection of 40 µl of 50% in mineral oil, n=4
Experimental: Blood obtained from the retro-orbit sinus was analyzed for serum concentration of hGH using the RIA, HGH-TGES 100T kit from Nichols Institute (San Juan Capistrano, CA). Serum ALT and GGT levels were done using EKTACHEM DT slides and a KODAK EKTACHEM DT 60 ANALYZER as recommended by the manufacturer (Kodak. Rochester, NY)
Similar results were also obtained when bile ducts were injected with 100 µg of pCILuc in 1 ml of 15% mannitol and 2.5 units heparin/ml in normal saline solution. A mean total luciferase protein/liver of 15.39 µg/liver (Fig. 1A. BD+CL) was obtained when the hepatic vein was clamped as compared to a mean total luciferase protein/liver of 1.33 µg/liver (Fig 1A. BD-CL) without occluding the hepatic vein If mannitol was omitted then the bile duct injections without clamping any blood vessels yielded approximately 15-fold less luciferase (0 086 µg/liver ± 0.06, n = 25). […] Serum ALT and GGT assays were performed on mice one and eight days after each of the above injections with pCILuc (4 mice for each condition). No increases in […] were observed after any of the injections including the bile duct injections. Serum ALT levels increased to 200-400 U/L one day after portal vein and bile duct injections. One day after IVC injections serum ALT levels increased to ∼1500 U/L in half of the mice but was only ∼250 U/L in the other half. […]

SMILES: ClC(Cl)(Cl)Cl [carbon tetrachloride]
- Serum ALT, average: 25,900 U/L
